For orientation: DC50 means the concentration at which degradation of the target reaches its halfway point.

Experimental findings from patent US20260355196A1, “INHIBITORS AND DEGRADERS OF PIP4K PROTEIN” (Larkspur Biosciences, Inc., priority 2023, published 2026) are described below.

Structures are written as SMILES.

For the first test, the target named is T1, PIP4K2C (Homo sapiens, UniProt Q8TBX8).
T1 sequence (Q8TBX8 1-421): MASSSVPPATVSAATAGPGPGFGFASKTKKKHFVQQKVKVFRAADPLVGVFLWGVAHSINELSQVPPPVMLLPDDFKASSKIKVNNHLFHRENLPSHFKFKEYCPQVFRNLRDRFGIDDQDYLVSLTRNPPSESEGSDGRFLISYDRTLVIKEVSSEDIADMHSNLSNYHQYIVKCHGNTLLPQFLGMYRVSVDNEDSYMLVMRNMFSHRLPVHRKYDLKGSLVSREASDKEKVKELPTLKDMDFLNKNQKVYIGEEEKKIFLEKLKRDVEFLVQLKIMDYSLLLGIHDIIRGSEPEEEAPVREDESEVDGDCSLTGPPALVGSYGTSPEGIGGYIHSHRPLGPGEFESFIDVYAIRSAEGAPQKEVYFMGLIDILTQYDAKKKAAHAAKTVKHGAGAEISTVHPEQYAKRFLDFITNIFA
Briefly: HiBiT PIP4K2C degradation assay in MOLT-4 cells (endogenous PIP4K2C C-terminally tagged with HiBiT). The format is cell-based. Also on record: untagged in primary human PBMCs and monocyte-derived dendritic cells. The following applies: 6 hours of incubation time, rather than 24 hours; MOLT-4, top concentration 10 micromolar; read-out: HiBIT-degradation MOLT4 PIP4k2C DC50 (6 hours, marked *). A digest of the protocol:
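Cells are plated onto compound dilutions (10 points, 3-fold, top 10 micromolar) and incubated 24 or 6 hours at 37 C. Lytic HiBiT detection then quantifies tagged endogenous PIP4K2C in MOLT-4, and a Hill fit yields DC50.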
For orientation: HiBiT is a short tag that completes a luciferase, so light tracks the accessible tagged protein.
As to `O=C1CC[C@@H](Nc2ccc(C3CCN(CC4CCN(C(=O)[C@H]5CC[C@H](Nc6ncc(F)c(-c7cccc(N8CCCOC8=O)c7)n6)CC5)CC4)CC3)c(F)c2)C(=O)N1` (single isomer, unassigned) [Compound 601], the DC50 was below 500 nM. Consider `O=C1CCC(Nc2ccc(C3CCN(C4CCN(C(=O)O[C@H]5CC[C@H](Nc6ncc(F)c(-c7cccc(N8CCOCC8)c7)n6)CC5)CC4)CC3)c(F)c2)C(=O)N1` (stereo partly drawn) [Compound 676, trans-4-((5-fluoro-4-(3-morpholinophenyl)pyrimidin-2-yl)amino)cyclohexyl 4-(4-((2,6-dioxopiperidin-3-yl)amino)-2-fluorophenyl)-[1,4′-bipiperidine]-1′-carboxylate], for which the DC50 was below 500 nM. As for `O=C1CCC(Nc2ccc(C3CCN(C4CC5(C4)CN(C(=O)O[C@H]4CC[C@H](Nc6ncc(F)c(-c7cccc(-n8ccccc8=O)c7)n6)CC4)C5)CC3)c(F)c2)C(=O)N1` (stereo partly drawn) [Compound 666, (trans)-4-((5-fluoro-4-(3-(2-oxopyridin-1 (2H)-yl)phenyl)pyrimidin-2-yl)amino)cyclohexyl 6-(4-(4-((2,6-dioxopiperidin-3-yl)amino)-2-fluorophenyl)piperidin-1-yl)-2-azaspiro[3.3]heptane-2-carboxylate], the DC50 is below 500 nM. The same measure, in the same setting: the same measure for `O=C1CCC(Nc2ccc(N3CCN(CC4(O)CCN(C(=O)[C@H]5CC[C@H](Nc6ncc(F)c(-c7cccc(-c8ccc[nH]c8=O)c7)n6)CC5)CC4)CC3)c(F)c2)C(=O)N1` (stereo partly drawn) [Compound 584, trans-3-((3-fluoro-4-(4-((1-(4-((5-fluoro-4-(3-(2-oxo-1,2-dihydropyridin-3-yl)phenyl)pyrimidin-2-yl)amino)cyclohexane-1-carbonyl)-4-hydroxypiperidin-4-yl)methyl)piperazin-1-yl)phenyl)amino)piperidine-2,6-dione]: above 5000 nM.

Staying with this test, now noted: 24 hours incubation, MOLT-4, top concentration 10 micromolar; read-out: HiBIT-degradation MOLT4 PIP4k2C 24 hours DC50.
As for `Cn1nc(C2CCC(=O)NC2=O)c2ccc(C3CCN(CC4CCN(CC(=O)N5CCC(Nc6ncc(F)c(-c7cccc(-n8ccccc8=O)c7)n6)CC5)CC4)CC3)cc21` (centres unmarked) [Compound 315, 3-(6-(1-((1-(2-(4-((5-fluoro-4-(3-(2-oxopyridin-1(2H)-yl)phenyl)pyrimidin-2-yl)amino)piperidin-1-yl)-2-oxoethyl)piperidin-4-yl)methyl)piperidin-4-yl)-1-methyl-1H-indazol-3-yl)piperidine-2,6-dione], the DC50 was below 500 nM.

Turning to `O=C1CCC(Nc2ccc(N3CCN([C@H]4CC[C@H](C(=O)N[C@H]5CC[C@H](Nc6ncc(F)c(-c7cccc(-n8ccccc8=O)c7)n6)CC5)CC4)CC3)c(F)c2)C(=O)N1` (stereo partly drawn) [Compound 319, trans-trans-4-(4-(4-((2,6-dioxopiperidin-3-yl)amino)-2-fluorophenyl)piperazin-1-yl)-N-(4-((5-fluoro-4-(3-(2-oxopyridin-1(2H)-yl)phenyl)pyrimidin-2-yl)amino)cyclohexyl)cyclohexane-1-carboxamide], the 50% degradation concentration (DC50) is below 500 nM. Still for that read-out and setting: next, `O=C1CCC(N2Cc3cc(OC4CCN(C(=O)CC5CCN(C(=O)[C@H]6CCC[C@@H](Nc7ncc(Cl)c(-c8cccc(-c9ccccc9)c8)n7)C6)CC5)CC4)ccc3C2=O)C(=O)N1` (relative stereo) [Compound 81, cis-3-(5-((1-(2-(1-(3-((4-([1,1′-biphenyl]-3-yl)-5-chloropyrimidin-2-yl)amino)cyclohexane-1-carbonyl)piperidin-4-yl)acetyl)piperidin-4-yl)oxy)-1-oxoisoindolin-2-yl)piperidine-2,6-dione]: below 500 nM; `Cn1nc(C2CCC(=O)NC2=O)c2ccc(C3CCN(CC(=O)N4CCC(O)(C(=O)N5CCC(Nc6ncc(Cl)c(-c7cccc(-c8ccc(F)cc8)c7)n6)CC5)CC4)CC3)cc21` (centres unmarked) [Compound 290, 3-(6-(1-(2-(4-(4-((5-chloro-4-(4′-fluoro-[1,1′-biphenyl]-3-yl)pyrimidin-2-yl)amino)piperidine-1-carbonyl)-4-hydroxypiperidin-1-yl)-2-oxoethyl)piperidin-4-yl)-1-methyl-1H-indazol-3-yl)piperidine-2,6-dione]: below 500 nM; `O=C1CCC(Nc2ccc(C3CCN(CC4CCN(C(=O)[C@H]5CCC[C@@H](Nc6ncc(Cl)c(-c7cccc(-c8ccccc8)c7)n6)C5)CC4)CC3)cc2)C(=O)N1` (relative stereo) [Compound 65, cis-3-((4-(1-((1-(3-((4-([1,1′-biphenyl]-3-yl)-5-chloropyrimidin-2-yl)amino)cyclohexane-1-carbonyl)piperidin-4-yl)methyl)piperidin-4-yl)phenyl)amino)piperidine-2,6-dione]: below 500 nM. Regarding `O=C1CCC(N2Cc3cc(OC4CCN(C(=O)CN5CCC(C(=O)N6CCC(Nc7ncc(Cl)c(-c8cccc(-c9ccccc9)c8)n7)CC6)CC5)CC4)ccc3C2=O)C(=O)N1` (centres unmarked) [Compound 83, 3-(5-((1-(2-(4-(4-((4-([1,1′-biphenyl]-3-yl)-5-chloropyrimidin-2-yl)amino)piperidine-1-carbonyl)piperidin-1-yl)acetyl)piperidin-4-yl)oxy)-1-oxoisoindolin-2-yl)piperidine-2,6-dione], the DC50 was below 500 nM. As to `O=C1CCC(Nc2ccc(C3CCN(CCC4CCN(C(=O)[C@@H]5CCC[C@H](Nc6ncc(F)c(-c7cccc(-n8ccccc8=O)c7)n6)C5)CC4)CC3(F)F)c(F)c2)C(=O)N1` (stereo partly drawn) [Compound 310, 3-[4-[3,3-difluoro-1-[2-[1-[(1R,3S)-3-[[5-fluoro-4-[3-(2-oxo-1-pyridyl)phenyl]pyrimidin-2-yl]amino]cyclohexanecarbonyl]-4-piperidyl]ethyl]-4-piperidyl]-3-fluoro-anilino]piperidine-2,6-dione], the DC50 is below 500 nM. Take `O=C1CCC(Nc2ccc(C3CCN(C[C@H]4CC[C@H](NC(=O)[C@H]5CCC[C@@H](Nc6ncc(F)c(-c7cccc(-n8ccccc8=O)c7)n6)C5)CC4)CC3)c(F)c2)C(=O)N1` (stereo in doubt) [Compound 324, trans-N-(cis-4-((4-(4-((2,6-dioxopiperidin-3-yl)amino)-2-fluorophenyl)piperidin-1-yl)methyl)cyclohexyl)-3-((5-fluoro-4-(3-(2-oxopyridin-1(2H)-yl)phenyl)pyrimidin-2-yl)amino)cyclohexane-1-carboxamide]: the DC50 was below 500 nM. Take `O=C1CCC(n2c(=O)oc3cc(C4CCN(CC5CCN(CC(=O)N[C@H]6CC[C@H](Nc7ncc(F)c(-c8cccc(N9CCCOC9=O)c8)n7)CC6)CC5)CC4)ccc32)C(=O)N1` (stereo partly drawn) [Compound 362, trans-2-(4-((4-(3-(2,6-dioxopiperidin-3-yl)-2-oxo-2,3-dihydrobenzo[d]oxazol-6-yl)piperidin-1-yl)methyl)piperidin-1-yl)-N-(4-((5-fluoro-4-(3-(2-oxo-1,3-oxazinan-3-yl)phenyl)pyrimidin-2-yl)amino)cyclohexyl)acetamide]: the DC50 is below 500 nM.

Staying with this test, now noted: read-out: HiBIT-degradation MOLT4 PIP4k2C DC50 (6 hours, marked *); 6 hours of incubation time, rather than 24 hours; MOLT-4, top concentration 10 micromolar.
In the case of `Cn1nc(C2CCC(=O)NC2=O)c2ccc(N3CCN(CC4(O)CCN(C(=O)O[C@H]5CC[C@H](Nc6ncc(F)c(-c7cccc(-c8ccccc8)c7)n6)CC5)CC4)CC3)cc21` (stereo partly drawn) [Compound 642, trans-4-((4-([1,1′-biphenyl]-3-yl)-5-fluoropyrimidin-2-yl)amino)cyclohexyl 4-((4-(3-(2,6-dioxopiperidin-3-yl)-1-methyl-1H-indazol-6-yl)piperazin-1-yl)methyl)-4-hydroxypiperidine-1-carboxylate], the DC50 was below 500 nM.
